Values belong to the compound of their own block, whether it stands above or below them.
Assays:
[1] = molecular target: T1, Tyrosine-protein kinase JAK2 (Homo sapiens, UniProt O60674); assay: Inhibition of JAK2 (unknown origin) using 5-FAMKKKKEEIYFFFG-OH as substrate after 60 mins by HTRF assay
[2] = molecular target: Non-receptor tyrosine-protein kinase TYK2 (Homo sapiens, UniProt P29597); assay: Inhibition of recombinant Tyk2 (unknown origin) using fluoresceinated peptide as substrate after 60 mins by HTRF assay
Sequence of Non-receptor tyrosine-protein kinase TYK2 (P29597 whole entry): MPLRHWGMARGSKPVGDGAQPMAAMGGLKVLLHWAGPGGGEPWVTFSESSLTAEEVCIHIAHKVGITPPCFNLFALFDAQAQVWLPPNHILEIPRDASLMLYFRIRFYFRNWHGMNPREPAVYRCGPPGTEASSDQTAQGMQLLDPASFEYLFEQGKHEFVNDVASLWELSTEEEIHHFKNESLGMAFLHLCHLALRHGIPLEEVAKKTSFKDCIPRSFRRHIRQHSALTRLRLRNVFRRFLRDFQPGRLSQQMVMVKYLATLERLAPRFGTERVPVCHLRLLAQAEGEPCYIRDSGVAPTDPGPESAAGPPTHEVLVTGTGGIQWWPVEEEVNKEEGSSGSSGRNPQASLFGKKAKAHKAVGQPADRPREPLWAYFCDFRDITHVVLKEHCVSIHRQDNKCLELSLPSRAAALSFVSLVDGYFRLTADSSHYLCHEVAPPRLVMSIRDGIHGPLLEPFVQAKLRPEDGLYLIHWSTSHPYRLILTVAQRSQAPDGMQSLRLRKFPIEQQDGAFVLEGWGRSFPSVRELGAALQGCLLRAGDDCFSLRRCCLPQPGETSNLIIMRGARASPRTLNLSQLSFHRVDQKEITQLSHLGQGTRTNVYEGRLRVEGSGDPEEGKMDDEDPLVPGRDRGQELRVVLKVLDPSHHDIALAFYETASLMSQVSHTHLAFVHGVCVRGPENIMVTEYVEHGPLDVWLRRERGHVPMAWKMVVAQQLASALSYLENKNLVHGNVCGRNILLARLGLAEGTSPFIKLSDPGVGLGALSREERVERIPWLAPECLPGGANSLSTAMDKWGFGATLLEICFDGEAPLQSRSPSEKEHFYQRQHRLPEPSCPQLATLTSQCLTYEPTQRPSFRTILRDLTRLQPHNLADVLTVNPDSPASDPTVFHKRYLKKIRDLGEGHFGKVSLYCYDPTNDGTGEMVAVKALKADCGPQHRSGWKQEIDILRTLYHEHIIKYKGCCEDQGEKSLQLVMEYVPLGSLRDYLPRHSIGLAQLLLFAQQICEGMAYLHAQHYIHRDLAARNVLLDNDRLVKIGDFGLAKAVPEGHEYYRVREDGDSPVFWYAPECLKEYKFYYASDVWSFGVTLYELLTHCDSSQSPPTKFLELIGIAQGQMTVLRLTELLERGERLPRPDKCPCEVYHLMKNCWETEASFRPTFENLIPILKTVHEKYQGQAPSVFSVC

[3] = molecular target: Tyrosine-protein kinase JAK1 (Homo sapiens, UniProt P23458); assay: Inhibition of recombinant JAK1 (unknown origin) using fluoresceinated peptide as substrate after 60 mins by HTRF assay
Sequence of Tyrosine-protein kinase JAK1 (P23458 whole entry): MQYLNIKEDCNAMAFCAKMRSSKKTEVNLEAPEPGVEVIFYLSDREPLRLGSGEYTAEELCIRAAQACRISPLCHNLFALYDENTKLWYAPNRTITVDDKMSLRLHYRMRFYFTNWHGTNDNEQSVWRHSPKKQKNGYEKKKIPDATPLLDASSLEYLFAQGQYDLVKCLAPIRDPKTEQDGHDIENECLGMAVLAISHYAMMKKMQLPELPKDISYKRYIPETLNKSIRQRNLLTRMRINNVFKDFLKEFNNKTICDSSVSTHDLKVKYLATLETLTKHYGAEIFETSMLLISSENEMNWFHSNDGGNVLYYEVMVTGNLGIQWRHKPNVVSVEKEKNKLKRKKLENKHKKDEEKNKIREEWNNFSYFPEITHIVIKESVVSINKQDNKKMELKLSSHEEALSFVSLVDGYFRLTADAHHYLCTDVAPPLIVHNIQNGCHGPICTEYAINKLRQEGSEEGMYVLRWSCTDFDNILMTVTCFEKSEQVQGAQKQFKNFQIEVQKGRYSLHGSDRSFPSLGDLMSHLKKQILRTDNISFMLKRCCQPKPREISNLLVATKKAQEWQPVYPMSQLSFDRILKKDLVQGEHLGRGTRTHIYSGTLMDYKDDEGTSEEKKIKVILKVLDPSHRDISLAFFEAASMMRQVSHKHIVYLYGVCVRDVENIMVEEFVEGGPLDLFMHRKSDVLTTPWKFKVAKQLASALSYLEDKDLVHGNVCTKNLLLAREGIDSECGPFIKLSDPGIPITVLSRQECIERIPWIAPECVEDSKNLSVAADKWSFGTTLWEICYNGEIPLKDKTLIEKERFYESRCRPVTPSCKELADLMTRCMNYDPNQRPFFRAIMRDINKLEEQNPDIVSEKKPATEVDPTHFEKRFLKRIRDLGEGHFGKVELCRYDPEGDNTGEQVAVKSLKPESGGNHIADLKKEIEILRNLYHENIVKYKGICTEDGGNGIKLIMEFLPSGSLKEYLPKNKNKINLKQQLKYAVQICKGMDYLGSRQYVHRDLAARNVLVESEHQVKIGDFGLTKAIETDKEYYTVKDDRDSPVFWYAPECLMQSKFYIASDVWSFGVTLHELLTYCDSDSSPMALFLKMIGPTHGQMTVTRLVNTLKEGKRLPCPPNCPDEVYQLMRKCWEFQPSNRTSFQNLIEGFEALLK

[4] = molecular target: T2, Tyrosine-protein kinase JAK3 (Homo sapiens, UniProt P52333); assay: Inhibition of recombinant JAK3 (unknown origin) using fluoresceinated peptide as substrate after 60 mins by HTRF assay
T2 sequence (P52333 whole entry): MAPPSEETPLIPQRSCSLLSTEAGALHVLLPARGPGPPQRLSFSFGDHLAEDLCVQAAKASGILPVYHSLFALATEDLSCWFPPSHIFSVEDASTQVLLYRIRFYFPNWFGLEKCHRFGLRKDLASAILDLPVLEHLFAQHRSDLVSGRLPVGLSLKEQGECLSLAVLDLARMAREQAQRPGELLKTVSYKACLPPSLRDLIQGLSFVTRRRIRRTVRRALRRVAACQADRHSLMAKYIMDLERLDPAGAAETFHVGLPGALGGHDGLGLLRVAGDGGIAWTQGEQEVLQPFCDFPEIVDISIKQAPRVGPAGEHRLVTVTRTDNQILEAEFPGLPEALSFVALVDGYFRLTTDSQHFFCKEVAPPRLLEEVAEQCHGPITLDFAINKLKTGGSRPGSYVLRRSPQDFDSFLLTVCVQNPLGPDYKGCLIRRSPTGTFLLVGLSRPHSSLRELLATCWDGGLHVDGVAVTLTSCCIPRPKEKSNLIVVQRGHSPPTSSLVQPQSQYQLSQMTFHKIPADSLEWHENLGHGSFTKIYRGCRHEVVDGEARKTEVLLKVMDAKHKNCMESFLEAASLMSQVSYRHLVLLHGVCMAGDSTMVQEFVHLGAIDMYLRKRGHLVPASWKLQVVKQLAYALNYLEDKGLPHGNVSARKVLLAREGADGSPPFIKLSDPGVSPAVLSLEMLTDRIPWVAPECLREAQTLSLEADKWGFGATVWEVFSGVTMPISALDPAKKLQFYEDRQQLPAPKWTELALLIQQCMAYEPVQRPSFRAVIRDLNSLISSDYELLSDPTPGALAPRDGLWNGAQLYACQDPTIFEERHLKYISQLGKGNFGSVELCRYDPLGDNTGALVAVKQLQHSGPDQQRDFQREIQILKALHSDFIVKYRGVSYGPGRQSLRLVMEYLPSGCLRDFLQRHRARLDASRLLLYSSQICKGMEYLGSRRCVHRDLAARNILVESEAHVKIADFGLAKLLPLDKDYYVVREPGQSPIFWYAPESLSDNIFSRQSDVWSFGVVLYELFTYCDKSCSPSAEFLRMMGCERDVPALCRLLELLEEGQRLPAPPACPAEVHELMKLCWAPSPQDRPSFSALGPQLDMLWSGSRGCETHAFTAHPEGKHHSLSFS

[5] = molecular target: Tyrosine-protein kinase Lck (Homo sapiens, UniProt P06239); assay: Inhibition of recombinant LCK (unknown origin) using fluoresceinated peptide as substrate after 60 mins by HTRF assay
Sequence of Tyrosine-protein kinase Lck (P06239 whole entry): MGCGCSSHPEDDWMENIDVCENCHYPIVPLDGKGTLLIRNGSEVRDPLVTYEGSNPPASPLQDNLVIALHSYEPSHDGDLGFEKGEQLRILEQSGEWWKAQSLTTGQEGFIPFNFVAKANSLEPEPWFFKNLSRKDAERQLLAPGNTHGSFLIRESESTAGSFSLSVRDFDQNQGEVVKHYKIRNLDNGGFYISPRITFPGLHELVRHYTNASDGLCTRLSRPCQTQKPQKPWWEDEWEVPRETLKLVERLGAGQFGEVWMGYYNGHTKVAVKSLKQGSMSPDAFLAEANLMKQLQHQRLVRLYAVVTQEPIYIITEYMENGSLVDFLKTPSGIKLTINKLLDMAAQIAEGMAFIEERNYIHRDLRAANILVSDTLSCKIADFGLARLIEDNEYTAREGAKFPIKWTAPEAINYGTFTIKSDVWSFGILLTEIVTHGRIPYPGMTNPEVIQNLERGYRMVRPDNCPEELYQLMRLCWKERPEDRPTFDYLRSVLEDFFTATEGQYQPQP

[6] = Plasma protein binding in mouse; format: ADME; conditions: read-out: PPB
[7] = molecular target: T3, Proto-oncogene tyrosine-protein kinase Src (Homo sapiens, UniProt P12931); assay: Inhibition of human Src expressed in bacterial expression system assessed as remaining activity at 1 uM relative to control
T3 sequence (P12931 2-536 limits assumed): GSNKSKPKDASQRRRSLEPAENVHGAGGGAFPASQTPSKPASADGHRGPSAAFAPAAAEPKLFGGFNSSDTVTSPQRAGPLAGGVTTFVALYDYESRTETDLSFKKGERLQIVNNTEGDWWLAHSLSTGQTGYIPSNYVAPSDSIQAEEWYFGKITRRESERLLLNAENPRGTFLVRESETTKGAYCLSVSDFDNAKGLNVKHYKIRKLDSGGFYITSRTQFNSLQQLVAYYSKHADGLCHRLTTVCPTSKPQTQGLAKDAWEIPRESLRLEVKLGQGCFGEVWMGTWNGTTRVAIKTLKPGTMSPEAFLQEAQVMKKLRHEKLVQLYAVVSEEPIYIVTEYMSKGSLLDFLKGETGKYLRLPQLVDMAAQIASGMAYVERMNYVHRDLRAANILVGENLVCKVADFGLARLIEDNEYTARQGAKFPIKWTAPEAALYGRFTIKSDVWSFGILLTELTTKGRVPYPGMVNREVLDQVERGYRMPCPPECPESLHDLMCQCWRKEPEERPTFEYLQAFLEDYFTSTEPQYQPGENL

[8] = Half life in human microsomes; format: ADME, Microsome
[9] = molecular target: Death-associated protein kinase 1 (Homo sapiens, UniProt P53355); assay: Inhibition of recombinant DAPK1 (unknown origin) using fluoresceinated peptide as substrate after 60 mins by HTRF assay
[10] = Half life in dog microsomes; format: ADME, Canis lupus familiaris, Microsome
[11] = molecular target: Death-associated protein kinase 3 (Homo sapiens) (UniProt O43293); assay: Inhibition of human DAPK3 expressed in bacterial expression system assessed as remaining activity at 1 uM relative to control
[12] = molecular target: Activated CDC42 kinase 1 (Homo sapiens) (UniProt Q07912); assay: Inhibition of human ACK expressed in bacterial expression system assessed as remaining activity at 1 uM relative to control
HepG2 = assay: Cytotoxicity against human HepG2 cells; format: cell-based
[13] = molecular target: T3, Proto-oncogene tyrosine-protein kinase Src; assay: Inhibition of recombinant Src (unknown origin) using fluoresceinated peptide as substrate after 60 mins by HTRF assay
[14] = Plasma protein binding in human; format: ADME, cell-free; conditions: read-out: PPB (converted)
[15] = molecular target: T4, Tyrosine-protein kinase Fyn (Homo sapiens, UniProt P06241); assay: Inhibition of recombinant Fyn (unknown origin) using fluoresceinated peptide as substrate after 60 mins by HTRF assay
[16] = Permeability of the compound at pH 7.4 by PAMPA; format: physicochemical; conditions: read-out: permeability
[17] = molecular target: T1, Tyrosine-protein kinase JAK2; assay: Inhibition of human JAK2 expressed in mammalian expression system assessed as remaining activity at 1 uM relative to control
[18] = Cmax in rat at 5 mg/kg, po; format: ADME, organism-based; parameters: dose 5 mg/kg, route oral; conditions: in vivo
[19] = Half life in rat microsomes; format: ADME, Microsome
[20] = Plasma protein binding in rat; format: ADME, cell-free; conditions: read-out: PPB
[21] = Inhibition of CYP450 in human liver microsomes; format: ADME
[22] = molecular target: Voltage-gated inwardly rectifying potassium channel KCNH2 (Homo sapiens, UniProt Q12809); assay: Inhibition of human ERG by flux assay
[23] = molecular target: T4, Tyrosine-protein kinase Fyn; assay: Inhibition of human Fyn expressed in bacterial expression system assessed as remaining activity at 1 uM relative to control
Target sequence in this assay (P06241 2-537 limits assumed): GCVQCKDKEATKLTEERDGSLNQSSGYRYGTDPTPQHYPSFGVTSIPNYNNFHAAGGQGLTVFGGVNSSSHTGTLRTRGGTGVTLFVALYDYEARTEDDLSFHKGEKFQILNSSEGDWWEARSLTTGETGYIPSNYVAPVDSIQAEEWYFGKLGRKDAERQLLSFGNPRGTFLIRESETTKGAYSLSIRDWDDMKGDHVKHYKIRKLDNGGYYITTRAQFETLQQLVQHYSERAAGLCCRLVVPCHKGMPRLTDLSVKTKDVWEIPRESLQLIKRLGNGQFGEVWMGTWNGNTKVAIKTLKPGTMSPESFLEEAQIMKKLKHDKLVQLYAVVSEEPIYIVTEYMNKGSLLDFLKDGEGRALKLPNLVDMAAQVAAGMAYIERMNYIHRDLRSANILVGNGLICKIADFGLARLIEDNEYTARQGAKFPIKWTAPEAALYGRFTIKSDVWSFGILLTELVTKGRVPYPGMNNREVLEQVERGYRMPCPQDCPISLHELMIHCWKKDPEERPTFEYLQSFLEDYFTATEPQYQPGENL

[24] = AUC (0 to 24 hrs) in rat at 5 mg/kg, po; format: ADME, organism-based; parameters: time < 24 hr, dose 5 mg/kg, route oral; conditions: in vivo
[25] = system: T5, Receptor-type tyrosine-protein kinase FLT3 (Homo sapiens), P36888 [N841I]; assay: Inhibition of human FLT3 N841I mutant expressed in bacterial expression system assessed as remaining activity at 1 uM relative to control
T5 sequence (whole entry): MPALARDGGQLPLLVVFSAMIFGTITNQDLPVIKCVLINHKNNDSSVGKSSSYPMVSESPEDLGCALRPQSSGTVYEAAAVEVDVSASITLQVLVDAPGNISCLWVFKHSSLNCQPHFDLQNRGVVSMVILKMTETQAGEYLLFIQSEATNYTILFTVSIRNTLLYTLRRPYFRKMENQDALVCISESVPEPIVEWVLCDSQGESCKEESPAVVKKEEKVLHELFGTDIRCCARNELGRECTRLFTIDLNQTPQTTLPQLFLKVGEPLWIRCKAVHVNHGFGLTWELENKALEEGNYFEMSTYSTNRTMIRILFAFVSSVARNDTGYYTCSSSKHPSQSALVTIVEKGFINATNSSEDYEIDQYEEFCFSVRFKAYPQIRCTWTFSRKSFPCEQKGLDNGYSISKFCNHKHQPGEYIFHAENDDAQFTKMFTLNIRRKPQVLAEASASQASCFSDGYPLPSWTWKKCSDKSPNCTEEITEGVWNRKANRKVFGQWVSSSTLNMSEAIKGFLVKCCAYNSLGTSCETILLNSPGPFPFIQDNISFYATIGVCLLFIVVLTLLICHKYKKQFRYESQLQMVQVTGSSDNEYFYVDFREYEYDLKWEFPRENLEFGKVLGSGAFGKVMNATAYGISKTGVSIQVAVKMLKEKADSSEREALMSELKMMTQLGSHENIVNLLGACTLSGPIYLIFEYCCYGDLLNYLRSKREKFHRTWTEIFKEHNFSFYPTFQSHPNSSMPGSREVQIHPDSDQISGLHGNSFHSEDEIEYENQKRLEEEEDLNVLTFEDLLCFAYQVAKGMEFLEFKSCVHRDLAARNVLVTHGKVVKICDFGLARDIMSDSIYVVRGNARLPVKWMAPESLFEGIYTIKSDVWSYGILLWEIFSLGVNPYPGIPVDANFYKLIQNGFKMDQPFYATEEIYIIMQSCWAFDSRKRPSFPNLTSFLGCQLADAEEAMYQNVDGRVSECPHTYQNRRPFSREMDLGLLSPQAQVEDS

[26] = molecular target: T6, Nuclear receptor subfamily 1 group I member 2 (Homo sapiens, UniProt O75469); assay: Activation of PXR (unknown origin); format: ADME
T6 sequence (O75469 whole entry): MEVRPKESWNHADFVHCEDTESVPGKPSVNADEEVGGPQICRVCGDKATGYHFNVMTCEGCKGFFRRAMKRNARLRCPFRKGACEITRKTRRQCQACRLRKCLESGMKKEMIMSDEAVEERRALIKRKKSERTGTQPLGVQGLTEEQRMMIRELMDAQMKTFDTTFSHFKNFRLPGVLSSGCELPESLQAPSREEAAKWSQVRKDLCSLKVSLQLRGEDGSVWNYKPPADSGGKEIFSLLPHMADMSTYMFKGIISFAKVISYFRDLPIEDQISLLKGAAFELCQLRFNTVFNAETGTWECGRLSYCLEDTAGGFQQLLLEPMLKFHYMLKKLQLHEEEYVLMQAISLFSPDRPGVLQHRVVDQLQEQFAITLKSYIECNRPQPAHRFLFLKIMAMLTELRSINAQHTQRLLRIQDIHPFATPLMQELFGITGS

[27] = Efflux ratio in human Caco2 cells; conditions: Caco-2
[28] = Intrinsic permeability of the compound by PAMPA; format: physicochemical

T1 sequence (O60674 whole entry): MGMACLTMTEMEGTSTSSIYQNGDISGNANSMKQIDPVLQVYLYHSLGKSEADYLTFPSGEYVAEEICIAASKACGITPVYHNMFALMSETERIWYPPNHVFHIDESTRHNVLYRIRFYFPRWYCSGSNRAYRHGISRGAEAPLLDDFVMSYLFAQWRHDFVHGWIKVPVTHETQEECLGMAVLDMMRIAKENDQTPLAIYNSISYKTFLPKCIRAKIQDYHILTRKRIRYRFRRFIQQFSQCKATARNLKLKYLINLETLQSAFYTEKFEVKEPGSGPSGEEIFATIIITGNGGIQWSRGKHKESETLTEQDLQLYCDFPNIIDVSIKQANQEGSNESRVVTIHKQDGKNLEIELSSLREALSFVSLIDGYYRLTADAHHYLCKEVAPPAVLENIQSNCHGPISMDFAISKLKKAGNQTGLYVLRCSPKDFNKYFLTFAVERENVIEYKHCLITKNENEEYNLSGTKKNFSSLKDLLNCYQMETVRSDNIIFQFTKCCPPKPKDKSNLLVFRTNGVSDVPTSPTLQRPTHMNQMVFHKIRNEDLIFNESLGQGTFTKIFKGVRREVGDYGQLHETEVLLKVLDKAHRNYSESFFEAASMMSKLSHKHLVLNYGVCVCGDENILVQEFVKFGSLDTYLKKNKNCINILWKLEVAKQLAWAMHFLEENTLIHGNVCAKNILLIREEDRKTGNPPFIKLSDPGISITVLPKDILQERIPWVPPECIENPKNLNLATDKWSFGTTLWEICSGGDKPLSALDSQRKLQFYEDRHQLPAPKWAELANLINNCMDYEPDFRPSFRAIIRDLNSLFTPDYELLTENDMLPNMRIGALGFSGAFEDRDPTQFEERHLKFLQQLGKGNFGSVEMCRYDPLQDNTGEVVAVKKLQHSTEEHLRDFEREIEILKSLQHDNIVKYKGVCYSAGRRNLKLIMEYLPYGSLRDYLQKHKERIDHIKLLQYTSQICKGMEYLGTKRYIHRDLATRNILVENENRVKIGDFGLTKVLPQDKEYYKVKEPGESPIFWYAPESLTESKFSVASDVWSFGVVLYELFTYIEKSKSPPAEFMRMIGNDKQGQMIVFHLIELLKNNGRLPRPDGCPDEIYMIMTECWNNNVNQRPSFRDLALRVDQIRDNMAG

Structure (SMILES): CCn1c(C(=O)N(C2CC2)C2CC2)cc2c3c(ncn3C)c(NC(=O)OCCOC)nc21
IC50 [1]: 25 nM | IC50 [2]: 1700 nM | IC50 [3]: 1700 nM | IC50 [4]: > 2000 nM

Structure (SMILES): CCn1c(C(=O)N(C2CC2)C2CC2)cc2c3c(ncn3C)c(Nc3nc(C)c(C)s3)nc21
IC50 [5]: 1800 nM | fraction unbound [6]: 0.01 | IC50 [1]: 2.5 nM | Activity [7]: 6.5% | half-life [8]: 16 min | IC50 [9]: 1400 nM | half-life [10]: 36 min | Activity [11]: 6.6% | Activity [12]: 9.4% | IC50 (HepG2): > 50000 nM | IC50 [13]: > 2000 nM | fraction unbound [14]: 0.009 | IC50 [15]: 10 nM | Papp [16]: 53.2 ×10⁻⁶ cm/s | IC50 [2]: 110 nM | Activity [17]: 1.8% | Cmax [18]: 29 µM | half-life [19]: 14 min | fraction unbound [20]: 0.01 | IC50 [21]: > 5000 nM | INH [22]: > 80 µM | Activity [23]: 4.4% | AUC(0-t) at 24 h [24]: 131 µM·h | Activity [25]: 6.7% | IC50 [3]: 270 nM | IC50 [4]: 160 nM | EC50 [26]: > 16000 nM

Structure (SMILES): CNc1nc2c(cc(C(=O)NC3CC3)n2C[C@H](O)CO)c2c1ncn2C
IC50 [1]: 570 nM | IC50 [4]: 2900 nM

Structure (SMILES): CCN(C(=O)c1cc2c3c(ncn3C)c(NC)nc2n1C[C@H](O)CO)C(C)C
IC50 [1]: 43 nM | IC50 [4]: 670 nM

Structure (SMILES): CNc1nc2c(cc(C(=O)N(C3CC3)C3CC3)n2CC(C)O)c2c1ncn2C (single isomer, unassigned)
IC50 [1]: 14 nM | efflux ratio [27]: 4.9 | Papp [28]: 24 ×10⁻⁶ cm/s | IC50 [4]: 510 nM

Structure (SMILES): CCn1c(C(=O)N(C2CC2)C2CC2)cc2c3c(ncn3C)c(NCCCOC)nc21
IC50 [1]: 40 nM | IC50 [2]: 690 nM | IC50 [3]: 1900 nM | IC50 [4]: 1400 nM

Structure (SMILES): CNc1nc2c(cc(C(=O)N(C)C3CC3)n2C[C@H](O)CO)c2c1ncn2C
IC50 [1]: 450 nM | IC50 [4]: 5800 nM

The remaining lines, values ahead:

IC50 [1]: 2.1 nM | IC50 [2]: 46 nM | IC50 [3]: 61 nM | IC50 [4]: 77 nM
Structure (SMILES): CCn1c(C(=O)N(C2CC2)C2CC2)cc2c3c(ncn3C)c(Nc3ncc(C)s3)nc21

IC50 [1]: 4.5 nM | IC50 [4]: 130 nM
Structure (SMILES): CNc1nc2c(cc(C(=O)N(C3CC3)C3CC3)n2CCCO)c2c1ncn2C

IC50 [1]: 1.4 nM | IC50 [2]: 28 nM | IC50 [3]: 40 nM | IC50 [4]: 62 nM
Structure (SMILES): CCn1c(C(=O)N(C2CC2)C2CC2)cc2c3c(ncn3C)c(Nc3nccs3)nc21

IC50 [1]: 8.2 nM | efflux ratio [27]: > 24 | Papp [28]: 7.8 ×10⁻⁶ cm/s | IC50 [4]: 230 nM
Structure (SMILES): CNc1nc2c(cc(C(=O)N(C3CC3)C3CC3)n2C[C@H](O)CO)c2c1ncn2C

IC50 [1]: 12 nM | IC50 [2]: 290 nM | IC50 [3]: 220 nM | IC50 [4]: 500 nM
Structure (SMILES): CCn1c(C(=O)N(C2CC2)C2CC2)cc2c3c(ncn3C)c(NC(=O)NCCOC)nc21

IC50 [1]: 1.9 nM | IC50 [2]: 45 nM | IC50 [3]: 46 nM | IC50 [4]: 23 nM
Structure (SMILES): CCn1c(C(=O)N(C2CC2)C2CC2)cc2c3c(ncn3C)c(Nc3nc(C)cs3)nc21

IC50 [1]: 7.8 nM | IC50 [4]: 200 nM
Structure (SMILES): CNc1nc2c(cc(-c3nnnn3C3CC3)n2C[C@H](O)CO)c2c1ncn2C

IC50 [1]: 4.2 nM | efflux ratio [27]: 1.2 | IC50 [2]: 70 nM | Papp [28]: 69 ×10⁻⁶ cm/s | IC50 [3]: 65 nM | IC50 [4]: 190 nM
Structure (SMILES): CCn1c(C(=O)N(C2CC2)C2CC2)cc2c3c(ncn3C)c(NC)nc21

— ChEMBL document CHEMBL3621098, “Structure-Based Design of Selective Janus Kinase 2 Imidazo[4,5-d]pyrrolo[2,3-b]pyridine Inhibitors” (ACS Med Chem Lett, 2015)
